Data reported in patent US11433090B2, “mTOR-inhibitor-containing medicine for treating or preventing ophthalmic symptoms, disorders, or diseases, and application thereof” (The Doshisha, priority 2017, dated 2022).

System: S6K
Assay: Western blot of S6K phosphorylation after TGF-β2 stimulation in iFECD
Format: cell-based, human
Details: 3 pmol mTOR siRNA, FIG. 6
Description: The medium was removed from a culture dish in which iFECDs were being cultured, and the cells were supplemented with 1×PBS (−) that was preheated to 37° C., and were washed. This was repeated twice. The cells were supplemented again with 1×PBS (−) and incubated for 3 minutes at 37° C. (5% CO2). After removing the PBS (−), the cells were supplemented with 0.05% Trypsin-EDTA (Nacalai Tesque, 32778-34) and incubated for 5 minutes at 37° C. (5% CO2). The cells were then suspended in a medium, and collected by centrifugation at 1500 rpm for 3 minutes. DMEM (Nacalai Tesque, 08456-36)+10% FBS (Biowest, S1820-500)+1% P/S (Nacalai Tesque, 26252-94) was used as the medium.
iFECDs were seeded on a 12-well plate at a ratio of 7×10^4 cells per well and cultured for 24 hours at 37° C. (5% CO2) (DMEM+10% FBS+1% P/S was used as the medium). After 24 hours, the medium was removed. Rapamycin was added to culture the cells for 24 hours. (DMEM+2% FBS+1% P/S was used as the medium). After 24 hours, the medium was removed. A medium containing 10 ng/ml of Recombinant Human TGF-β2 (Wako, 200-19911) and rapamycin was added to culture the cells for 24 hours. […]
8 μg of the extracted protein was separated by SDS-PAGE and transferred onto a nitrocellulose membrane. […] The detected band strength was analyzed with a lumino image analyzer LAS-4000 mini (Fuji Film) and ImageQuant™ software (GE Healthcare). […]

With “mTOR siRNA: siRNA against mTOR gene (Ambion, AS026M0L); sense strand SEQ ID NO: 1, antisense strand SEQ ID NO: 2 (sense CAUUCGCAUUCAGUCCAUATT; antisense UAUGGACUGAAUGCGAAUGAT; chemistry not given here)” the “phosphorylation of S6K at protein level, western blot” value was “suppressed”.
